These results are taken from patent publication US12509449B2, “Anthelmintic compounds comprising a quinoline structure” (Intervet Inc., priority 2019, dated 2025).

The target in test [1] is T1, human Maxi K channel (BK channel), KCNMA1 (KCa1.1) and beta1 (KCNMB1) subunits (Homo sapiens, UniProt Q12791).
T1 construct: expressed in transfected cells; host or cells: CHO K1
Kind of test: Agonistic activity at the human Maxi K channel (BK channel), membrane potential (FLIPR) in transfected CHO K1 cells. Type of test: cell-based. The following applies: membrane potential dye, 70 mM KCl. The text has this:
A CHO K1 cell line was stably transfected with the KCNMA1 (KCa1.1, U11058) and beta1 (KCNMB1) subunits of the human Maxi K channel (Ponte et al, Molecular Pharmacology 2012, 81(4), 567-577).
The complete measurement takes 150 s.

Test [2] has as its target Caenorhabditis elegans slo-1a (Caenorhabditis elegans, UniProt Q95V25). Kind of test: Agonistic activity at C. elegans Slo-1a, membrane potential (FLIPR) in transfected CHO K1 cells. As to conditions: EC50 agonistic activity at C. elegans Slo-1a, membrane potential dye, 70 mM KCl.
The subject of test [3] is Ascaridia galli L3. Kind of test: In vitro assay Ascaridia galli larval stage 3, minimum effective concentration. The following applies: 20 larvae per well, microscopic examination, read-out: MEC (minimum effective concentration) against Ascaridia galli L3. Type of test: cell-based. The text has this:
[…] galli (intestinal roundworm of chicken), larval stage 3 (“L3”); and Oesophagostumum dentatum (nodular worm of swine), larval stages 3 and 4 (respectively “L3” and “L4”) where suspended in a nutrient medium and distributed to 96 well plates with 20 larvae per well. The wells were spiked DMSO solutions of the compounds with declining concentration.

SMILES strings stand for the structures. Bounds are passed on as bounds.

T1 sequence (Q12791 1-1178 isoform Q12791-5): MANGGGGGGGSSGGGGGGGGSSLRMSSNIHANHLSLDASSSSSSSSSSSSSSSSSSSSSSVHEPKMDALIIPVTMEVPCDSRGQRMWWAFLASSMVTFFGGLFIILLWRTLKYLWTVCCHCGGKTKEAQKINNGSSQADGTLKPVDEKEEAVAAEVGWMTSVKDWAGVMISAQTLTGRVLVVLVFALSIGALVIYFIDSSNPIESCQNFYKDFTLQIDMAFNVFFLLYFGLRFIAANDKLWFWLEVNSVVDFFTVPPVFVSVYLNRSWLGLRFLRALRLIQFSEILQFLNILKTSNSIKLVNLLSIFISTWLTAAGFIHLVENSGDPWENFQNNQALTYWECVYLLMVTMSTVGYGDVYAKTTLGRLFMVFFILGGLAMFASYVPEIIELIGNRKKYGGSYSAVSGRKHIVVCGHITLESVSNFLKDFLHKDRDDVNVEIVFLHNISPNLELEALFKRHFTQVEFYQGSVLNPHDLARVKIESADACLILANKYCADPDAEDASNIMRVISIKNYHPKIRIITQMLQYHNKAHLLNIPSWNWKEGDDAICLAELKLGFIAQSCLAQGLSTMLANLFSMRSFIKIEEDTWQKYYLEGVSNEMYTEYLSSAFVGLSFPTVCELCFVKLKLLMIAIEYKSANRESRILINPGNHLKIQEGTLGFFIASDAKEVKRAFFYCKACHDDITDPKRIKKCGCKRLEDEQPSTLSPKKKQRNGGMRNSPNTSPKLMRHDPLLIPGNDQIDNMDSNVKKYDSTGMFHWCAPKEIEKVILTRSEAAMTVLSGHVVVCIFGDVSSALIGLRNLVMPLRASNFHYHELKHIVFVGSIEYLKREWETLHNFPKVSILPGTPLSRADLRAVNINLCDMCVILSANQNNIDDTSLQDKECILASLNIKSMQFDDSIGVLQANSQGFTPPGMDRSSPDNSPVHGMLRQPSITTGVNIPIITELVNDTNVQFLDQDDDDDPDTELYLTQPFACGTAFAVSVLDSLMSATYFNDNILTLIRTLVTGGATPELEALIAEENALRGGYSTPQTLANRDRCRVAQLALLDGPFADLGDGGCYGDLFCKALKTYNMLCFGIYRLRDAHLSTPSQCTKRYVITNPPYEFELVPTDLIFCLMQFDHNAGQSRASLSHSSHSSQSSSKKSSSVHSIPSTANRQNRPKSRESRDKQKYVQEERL
T1 sequence (Q16558 whole entry partner): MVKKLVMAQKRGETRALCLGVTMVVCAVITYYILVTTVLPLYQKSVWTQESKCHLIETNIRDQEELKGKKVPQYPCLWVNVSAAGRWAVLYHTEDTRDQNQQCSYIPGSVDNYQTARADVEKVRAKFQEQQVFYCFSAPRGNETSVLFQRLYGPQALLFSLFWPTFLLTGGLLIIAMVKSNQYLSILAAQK
Caenorhabditis elegans slo-1a, sequence (Q95V25 whole entry): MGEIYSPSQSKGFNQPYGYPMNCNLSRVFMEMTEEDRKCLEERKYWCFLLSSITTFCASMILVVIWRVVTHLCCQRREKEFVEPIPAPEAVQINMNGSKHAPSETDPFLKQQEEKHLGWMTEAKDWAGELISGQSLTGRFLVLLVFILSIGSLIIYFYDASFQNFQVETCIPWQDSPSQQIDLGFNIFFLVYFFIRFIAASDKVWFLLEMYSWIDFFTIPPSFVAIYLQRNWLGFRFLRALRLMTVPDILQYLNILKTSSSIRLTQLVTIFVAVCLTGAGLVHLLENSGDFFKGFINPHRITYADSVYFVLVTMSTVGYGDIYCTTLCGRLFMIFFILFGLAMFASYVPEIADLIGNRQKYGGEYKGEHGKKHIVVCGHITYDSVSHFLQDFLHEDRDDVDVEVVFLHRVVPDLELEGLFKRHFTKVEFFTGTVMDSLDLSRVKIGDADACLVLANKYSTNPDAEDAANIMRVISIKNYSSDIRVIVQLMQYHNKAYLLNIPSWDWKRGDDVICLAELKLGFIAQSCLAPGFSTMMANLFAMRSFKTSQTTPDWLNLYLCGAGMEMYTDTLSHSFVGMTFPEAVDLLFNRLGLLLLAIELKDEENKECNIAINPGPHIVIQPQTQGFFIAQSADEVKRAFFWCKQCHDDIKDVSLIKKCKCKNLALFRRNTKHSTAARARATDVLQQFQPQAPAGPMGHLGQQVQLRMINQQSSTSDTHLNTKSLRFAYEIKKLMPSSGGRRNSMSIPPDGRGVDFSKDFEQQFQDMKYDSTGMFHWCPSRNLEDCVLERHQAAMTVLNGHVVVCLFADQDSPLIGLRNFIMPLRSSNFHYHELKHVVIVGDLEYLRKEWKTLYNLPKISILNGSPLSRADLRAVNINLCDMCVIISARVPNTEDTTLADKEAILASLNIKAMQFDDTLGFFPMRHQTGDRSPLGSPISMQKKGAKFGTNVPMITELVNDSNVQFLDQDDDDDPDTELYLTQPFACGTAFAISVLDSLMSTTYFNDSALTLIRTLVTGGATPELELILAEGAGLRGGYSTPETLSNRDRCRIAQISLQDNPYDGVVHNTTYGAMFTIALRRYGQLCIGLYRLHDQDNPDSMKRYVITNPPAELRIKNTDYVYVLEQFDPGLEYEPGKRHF

In turn, `O=C(Cc1ccccc1)Nc1cnc2c(-c3cc(Cl)cc(Cl)c3)cccc2c1N1CCOCC1` [Compound 5] returned a half-maximal effective concentration (EC50) in test [1] greater than 30 µM. As to `O=C(Nc1cnc2c(-c3cc(Cl)cc(Cl)c3)cccc2c1N1CCOCC1)C1CCOc2ccccc21` (centres unmarked) [Compound 7], the EC50 in test [1] was greater than 30 µM; in test [2] it was less than 10 µM. Regarding `CC(C(=O)Nc1cnc2c(-c3cc(Cl)cc(Cl)c3)cccc2c1N1CCOCC1)c1ccccc1` (centres unmarked) [Compound 9], the figures for the EC50 in test [1] and in test [2] were greater than 30 µM and less than 1 µM, respectively. Turning to `CN(C)c1c(NC(=O)C2CCCc3ccccc32)cnc2c(-c3cccc(Cl)c3Cl)cccc12` (centres unmarked) [Compound 13], the EC50 is 1 to 10 µM in test [1] and less than 1 µM in test [2].

Regarding `O=C(Nc1cnc2c(-c3cccc(Cl)c3Cl)cccc2c1N1CCOCC1)C1CCCc2ccccc21` (centres unmarked) [Compound 19], the EC50 is 1 to 10 µM in test [1] and less than 1 µM in test [2].

Consider `O=C(Nc1cnc2c(-c3cccc(Cl)c3Cl)cccc2c1N1CCOCC1)C1CCc2ccccc21` (centres unmarked) [Compound 20], for which the results for the EC50 in test [1] and in test [2] were 1 to 10 µM and less than 1 µM, respectively. With `CC(C(=O)Nc1cnc2c(-c3cccc(Cl)c3Cl)cccc2c1N(C)C)c1cccc(N(C)C)c1` (centres unmarked) [Compound 50], the minimal effective concentration in test [3] was no more than 50 µM. Also, the EC50 in test [1] was greater than 30 µM. Consider `O=C(Nc1cnc2c(-c3cccc(Cl)c3Cl)cccc2c1N1CCOCC1)[C@H]1CCCc2ccccc21` [Compound 53], for which the concentration for a half-maximal effect (EC50) in test [1] lay within 1 to 10 µM.

For `CCOc1c(NC(=O)[C@H]2CCCc3ccccc32)cnc2c(-c3cccc(Cl)c3Cl)cccc12` [Compound 54], the EC50 in test [1] is greater than 30 µM; in test [2], less than 1 µM. Consider `CCOc1c(NC(=O)C2CCCc3ccccc32)cnc2c(-c3cccc(Cl)c3Cl)cccc12` (centres unmarked) [Compound 55], for which the EC50 in test [1] is greater than 30 µM; in test [2], less than 1 µM. `CC(C)Oc1c(NC(=O)C2CCCc3ccccc32)cnc2c(-c3cccc(Cl)c3Cl)cccc12` (centres unmarked) [Compound 59] displayed an EC50 in test [1] greater than 30 µM. `COc1c(NC(=O)c2cccc3ccccc23)cnc2c(-c3cccc(Cl)c3Cl)cccc12` [Compound 62]: the EC50 in test [1] was greater than 30 µM; in test [2], less than 1 µM. In test [1], `O=C(Nc1cnc2c(-c3cc(Cl)cc(Cl)c3)cccc2c1O)C1CCOc2ccccc21` (centres unmarked) [Compound 64] had a 50% effective concentration (EC50) greater than 30 µM. For the molecule `O=C(Nc1cnc2c(-c3cc(Cl)cc(Cl)c3)cccc2c1O)C1CCc2ccccc21` (centres unmarked) [Compound 65], the half-maximal effective concentration (EC50) is greater than 30 µM in test [1] and less than 10 µM in test [2].

As to `O=C(Nc1cnc2c(-c3cc(Cl)cc(Cl)c3)cccc2c1O)c1cccc2ccccc12` [Compound 66], the minimal effective concentration in test [3] was no more than 50 µM. In test [1], this molecule yielded an EC50 greater than 30 µM.

Turning to `CN(C)c1c(NC(=O)C2CCCc3ccccc32)cnc2c(-c3cc(Cl)cc(Cl)c3)cccc12` (centres unmarked) [Compound 68], the concentration giving a half-maximal response (EC50) is greater than 30 µM in test [1] and less than 1 µM in test [2]. On to `O=C(Nc1cnc2c(-c3cc(Cl)cc(Cl)c3)cccc2c1N1CCOCC1)c1cccc2ccccc12` [Compound 74], for which the concentration giving a half-maximal response (EC50) in test [1] is 10 to 30 µM; in test [2], less than 1 µM. The molecule `CC(C)Oc1c(NC(=O)C2CCOc3ccccc32)cnc2c(-c3cc(Cl)cc(Cl)c3)cccc12` (centres unmarked) [Compound 78] yielded an EC50 in test [1] greater than 30 µM.

`CC(C)Oc1c(NC(=O)C2CCc3ccccc32)cnc2c(-c3cc(Cl)cc(Cl)c3)cccc12` (centres unmarked) [Compound 80] showed a half-maximal effective concentration (EC50) in test [1] greater than 30 µM. `O=C(Nc1cnc2c(-c3cc(Cl)cc(Cl)c3)cccc2c1N1CCOCC1)C1CCc2ccccc21` (centres unmarked) [Compound 82]: the concentration for a half-maximal effect (EC50) in test [1] was 10 to 30 µM; in test [2] it was less than 1 µM. Molecule `COCCN(C)c1c(NC(=O)C2CCOc3ccccc32)cnc2c(-c3cccc(Cl)c3Cl)cccc12` (centres unmarked) [Compound 93] yielded a concentration giving a half-maximal response (EC50) in test [1] greater than 30 µM. `CC(C)Nc1c(NC(=O)C2CCCc3ccccc32)cnc2c(-c3cccc(Cl)c3Cl)cccc12` (centres unmarked) [Compound 97] gave an EC50 in test [1] greater than 30 µM. The same measure, in the same setting: in the case of `COCCNc1c(NC(=O)C2CCCc3ccccc32)cnc2c(-c3cccc(Cl)c3Cl)cccc12` (centres unmarked) [Compound 101] it was 10 to 30 µM. With `COCCN(C)c1c(NC(=O)C2CCCc3ccccc32)cnc2c(-c3cccc(Cl)c3Cl)cccc12` (centres unmarked) [Compound 103], the values for the half-maximal effective concentration (EC50) in test [1] and in test [2] were greater than 30 µM and less than 1 µM, respectively. Regarding `CCc1c(NC(=O)C2CCOc3ccccc32)cnc2c(-c3cccc(Cl)c3Cl)cccc12` (centres unmarked) [Compound 105], the figures for the concentration giving a half-maximal response (EC50) in test [1] and in test [2] were greater than 30 µM and less than 1 µM, respectively. Consider `Cc1c(NC(=O)c2ccnc3ccccc23)cnc2c(-c3cccc(Cl)c3Cl)cccc12` [Compound 106], for which the EC50 in test [1] was greater than 30 µM. Turning to `CC(C)c1c(NC(=O)C2CCCc3ccccc32)cnc2c(-c3cccc(Cl)c3Cl)cccc12` (centres unmarked) [Compound 109], the EC50 in test [1] was greater than 30 µM; in test [2] it was less than 1 µM. For the molecule `O=C(Nc1cnc2c(-c3cccc(Cl)c3Cl)cccc2c1O)C1CCc2ccccc21` (centres unmarked) [Compound 111], the EC50 in test [1] is greater than 30 µM.

For the molecule `CC(C)Oc1c(NC(=O)C2CCCc3ccccc32)cnc2c(-c3cc(Cl)cc(Cl)c3)c(F)ccc12` (centres unmarked) [Compound 117], the 50% effective concentration (EC50) in test [1] was greater than 30 µM. On to `CCOc1c(NC(=O)C2CCCc3ccccc32)cnc2c(-c3cccc(Cl)c3Cl)c(F)ccc12` (centres unmarked) [Compound 119], for which the concentration for a half-maximal effect (EC50) in test [1] was greater than 30 µM; in test [2], less than 1 µM. Turning to `O=C(Nc1cnc2c(-c3cccc(Cl)c3Cl)c(F)ccc2c1N1CCOCC1)C1CCCc2ccccc21` (centres unmarked) [Compound 121], the half-maximal effective concentration (EC50) in test [1] is 1 to 10 µM; in test [2] it was less than 1 µM. On to `O=C(Nc1cnc2c(-c3cc(Cl)cc(Cl)c3)c(F)ccc2c1N1CCOCC1)C1CCOc2ccccc21` (centres unmarked) [Compound 126], for which the EC50 in test [1] was greater than 30 µM; in test [2], less than 1 µM. In test [1], `CCOc1c(NC(=O)C2CCc3ccccc32)cnc2c(-c3cc(Cl)cc(Cl)c3)c(F)ccc12` (centres unmarked) [Compound 134] displayed an EC50 greater than 30 µM. As to `CN(C)c1c(NC(=O)C2CCc3ccccc32)cnc2c(-c3cc(Cl)cc(Cl)c3)c(F)ccc12` (centres unmarked) [Compound 135], the concentration giving a half-maximal response (EC50) in test [1] was greater than 30 µM; in test [2] it was less than 1 µM.

`CCOc1c(NC(=O)C2CCc3ccccc32)cnc2c(-c3cccc(Cl)c3Cl)c(F)ccc12` (centres unmarked) [Compound 139]: the figures for the concentration for a half-maximal effect (EC50) in test [1] and in test [2] were greater than 30 µM and less than 1 µM, respectively. On the same counts, the results for `CN(C)c1c(NC(=O)C2CCc3ccccc32)cnc2c(-c3cccc(Cl)c3Cl)c(F)ccc12` (centres unmarked) [Compound 140] are 10 to 30 µM and less than 1 µM.

Regarding `O=C(Nc1cnc2c(-c3cccc(Cl)c3Cl)c(F)ccc2c1N1CCOCC1)C1CCc2ccccc21` (centres unmarked) [Compound 141], the EC50 was 1 to 10 µM in test [1] and less than 1 µM in test [2]. Take `CCOc1c(NC(=O)c2cccc3ccccc23)cnc2c(-c3cc(Cl)cc(Cl)c3)c(F)ccc12` [Compound 144]: the EC50 in test [1] is greater than 30 µM; in test [2] it was less than 10 µM. On the same counts, the results for `O=C(Nc1cnc2c(-c3cc(Cl)cc(Cl)c3)c(F)ccc2c1N1CCOCC1)c1cccc2ccccc12` [Compound 146] are 10 to 30 µM and less than 1 µM. For the molecule `CCOc1c(NC(=O)c2cccc3ccccc23)cnc2c(-c3cccc(Cl)c3Cl)c(F)ccc12` [Compound 149], the EC50 was greater than 30 µM in test [1] and less than 1 µM in test [2].

Take `CN(C)c1c(NC(=O)c2cccc3ccccc23)cnc2c(-c3cccc(Cl)c3Cl)c(F)ccc12` [Compound 150]: the EC50 in test [1] was 10 to 30 µM; in test [2] it was less than 1 µM. On to `CN(C)c1c(NC(=O)c2cccc3ccccc23)cnc2c(-c3cc(Cl)cc(Cl)c3)cccc12` [Compound 153], for which the EC50 in test [1] is greater than 30 µM; in test [2], less than 10 µM.

On to `O=C(Nc1cnc2c(-c3cc(Cl)cc(Cl)c3)c(Cl)ccc2c1N1CCOCC1)C1CCOc2ccccc21` (centres unmarked) [Compound 170], for which the half-maximal effective concentration (EC50) was greater than 30 µM in test [1] and less than 1 µM in test [2]. On the same counts, the results for `CN(C)c1c(NC(=O)C2CCOc3ccccc32)cnc2c(-c3cc(Cl)cc(Cl)c3)c(Cl)ccc12` (centres unmarked) [Compound 171] are greater than 30 µM and less than 1 µM.

As for `Cc1ccc2c(N3CCOCC3)c(NC(=O)C3CCOc4ccccc43)cnc2c1-c1cc(Cl)cc(Cl)c1` (centres unmarked) [Compound 174], the EC50 in test [1] is greater than 30 µM; in test [2], less than 1 µM. Regarding `COc1c(NC(=O)[C@H]2CCCc3ccccc32)cnc2c(-c3cccc(Cl)c3Cl)c(C)ccc12` [Compound 183], the 50% effective concentration (EC50) in test [1] was greater than 30 µM; in test [2], less than 1 µM. Regarding `Cc1ccc2c(N(C)C)c(NC(=O)[C@H]3CCCc4ccccc43)cnc2c1-c1cccc(Cl)c1Cl` [Compound 184], the figures for the EC50 in test [1] and in test [2] were 10 to 30 µM and less than 1 µM, respectively. For the molecule `O=C(Nc1cnc2c(-c3cc(Cl)cc(Cl)c3)c(Cl)ccc2c1N1CCOCC1)[C@H]1CCCc2ccccc21` [Compound 185], the EC50 is 10 to 30 µM in test [1] and less than 1 µM in test [2]. As for `CN(C)c1c(NC(=O)[C@H]2CCCc3ccccc32)cnc2c(-c3cc(Cl)cc(Cl)c3)c(Cl)ccc12` [Compound 186], the EC50 is greater than 30 µM in test [1] and less than 1 µM in test [2]. In the case of `CCCc1c(NC(=O)c2cccc3ccccc23)cnc2c(-c3cccc(Cl)c3Cl)cccc12` [Compound 187], the half-maximal effective concentration (EC50) was greater than 30 µM in test [1] and less than 1 µM in test [2].

Turning to `C=C(C)c1c(NC(=O)c2cccc3ccccc23)cnc2c(-c3cccc(Cl)c3Cl)cccc12` [Compound 189], the concentration for a half-maximal effect (EC50) in test [1] is greater than 30 µM. With `Cc1c(NC(=O)c2cccc3ccccc23)cnc2c(-c3cccc(Cl)c3Cl)cccc12` [Compound 190], the EC50 in test [1] is greater than 30 µM; in test [2], less than 10 µM. As to `CCc1c(NC(=O)[C@H]2CCCc3ccccc32)cnc2c(-c3cccc(Cl)c3Cl)cccc12` [Compound 204], the concentration giving a half-maximal response (EC50) in test [1] was greater than 30 µM; in test [2], less than 1 µM.
